Measurements from PubChem BioAssay (NCI).
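Abbreviation: GI50, concentration required for 50% inhibition of growth. The concentration for full growth arrest is given as TGI.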

How the values were obtained:
Test in all cases: growth of human tumour cells (NCI), 384-well format
HOP-92 NSCLC = system: HOP-92 NSCLC
RXF 393 renal = system: RXF 393 renal
M14 melanoma = system: M14 melanoma
CAKI-1 renal = system: CAKI-1 renal
OVCAR-5 ovarian = system: OVCAR-5 ovarian
SK-MEL-5 melanoma = system: SK-MEL-5 melanoma
HS 578T breast = system: HS 578T breast
HCC-2998 colon = system: HCC-2998 colon
SN12C renal = system: SN12C renal
HCT-116 colon = system: HCT-116 colon
SF-268 CNS = system: SF-268 CNS
OVCAR-3 ovarian = system: OVCAR-3 ovarian
K-562 leukemia = system: K-562 leukemia

CC(C)(O)c1cc(Nc2cc(Oc3cn(C4CC4)nc3C3CCOCC3)ccn2)ccn1
GI50 (HOP-92 NSCLC): 50.7 µM | TGI (HOP-92 NSCLC): > 100 µM | GI50 (RXF 393 renal): 43.5 µM | TGI (RXF 393 renal): > 100 µM | GI50 (M14 melanoma): > 100 µM | TGI (M14 melanoma): > 100 µM | GI50 (CAKI-1 renal): 68.1 µM | TGI (CAKI-1 renal): > 100 µM | GI50 (OVCAR-5 ovarian): > 100 µM | TGI (OVCAR-5 ovarian): > 100 µM | GI50 (SK-MEL-5 melanoma): 16.4 µM | TGI (SK-MEL-5 melanoma): > 100 µM | GI50 (HS 578T breast): 37.7 µM | TGI (HS 578T breast): > 100 µM | GI50 (HCC-2998 colon): > 100 µM | TGI (HCC-2998 colon): > 100 µM | GI50 (SN12C renal): > 82 µM | TGI (SN12C renal): > 100 µM | GI50 (HCT-116 colon): 46.6 µM | TGI (HCT-116 colon): > 100 µM | GI50 (SF-268 CNS): > 100 µM | TGI (SF-268 CNS): > 100 µM | GI50 (OVCAR-3 ovarian): 52.8 µM | TGI (OVCAR-3 ovarian): > 100 µM | GI50 (K-562 leukemia): 26.3 µM | TGI (K-562 leukemia): > 100 µM
